US12472185B2, “Methods for killing antibiotic tolerant bacteria” (THE PENN STATE RESEARCH FOUNDATION, priority 2020, dated 2025)

Legend:
[1] = system: S. aureus cells; assay: Survival of cells (drop assay); format: cell-based, Staphylococcus aureus; settings: 200 μM
Description: FIG. 2. NPIMA eradicates Escherichia coli, Pseudomonas aeruginosa, and Staphylococcus aureus exponential cells. Survival after 6 hr for (a) E. coli BW25113 with NPIMA and 5-iodoindole at 100 μM, (b) P. aeruginosa PA14 with NPIMA and 5-iodoindole at 100 μM, and (c) S. aureus with NPIMA and 5-iodoindole at 200 μM. Asterisk indicates no viable cells detected. NPIMA, 5-nitro-3-phenyl-1H-indol-2-yl-methylamine hydrochloride.
(§1) For bacterial viability, cells were washed twice with 0.85% NaCl, resuspended in 1×PBS, and cell counts were determined via the drop assay (Donegan, Matyac, Seidler, & Porteous, 1991). For human cell viability, pre-cultured human cancer HT-29 cells were dispensed in 98 μl in 96-well plates with approximately 5,000 cells/well. NPIMA was added (2 μl) to produce concentrations of 5, 10, 100, and 200 μM. For controls, Triton X-100 (positive control) and DMSO (negative solvent control), were used, and the medium was used for background. Plates were incubated in a humidified incubator (37° C., 5% CO2) for 24 hr. Cell viability was determined via a cell counting kit (CCK-8 Kit, ab228554; Abcam), and cytotoxicity was determined via the lactate dehydrogenase (LDH) assay (LDH Assay Kit, MK401; Takara).

[2] = system: P. aeruginosa PA14; assay: LIVE/DEAD staining; format: cell-based, Pseudomonas aeruginosa; settings: 100 μM, 1 hr
Description: (§2) FIG. 4. NPIMA lyses Escherichia coli, Pseudomonas aeruginosa, and Staphylococcus aureus. LIVE/DEAD staining of (a) E. coli BW25113 after 0.75 hr, (b) P. aeruginosa PA14 after 1 hr, and (c) S. aureus after 1 hr treatment with NPIMA at 100 μM. […] White arrows indicate lysed cells. Representative images are shown. Scale bar=[…]. NPIMA, 5-nitro-3-phenyl-1H-indol-2-ylmethylamine hydrochloride.
(§3) Cell viability after treating with NPIMA was determined using the using the LIVE/DEAD BacLight Bacterial Viability Kit (catalog number, L7012; Molecular Probes, Inc., Eugene, OR). The fluorescence signal was analyzed via a Zeiss Axioscope.A1 using excitation at 485 nm and emission at 530 nm for green fluorescence and using excitation at 485 nm and emission at 630 nm for red fluorescence.

[3] = system: human cancer HT-29 cells; assay: Viability (CCK-8) and cytotoxicity (LDH) assays; format: cell-based; settings: 24 hr
Description: FIG. 11. Cytotoxicity of NPIMA with HT-29 cells. (A) Cell viability was measured via a CCK-8 assay. (B) Cytotoxicity was measured with various concentrations of NPIMA […] for 24 h. Cell viability was measured at 450 nm, and cell toxicity was measured at 492 nm and a reference wavelength ([…]) was used.
as §1

[4] = system: P. aeruginosa + S. aureus; assay: In vitro Lubbock chronic wound pathogenic biofilm model; format: cell-based, Pseudomonas aeruginosa and Staphylococcus aureus; settings: 0.5 mM, 6 hr
Description: FIG. 10. NPIMA kills S. aureus and P. aeruginosa in a wound model. Survival of total cells (P. aeruginosa+S. aureus) in the wound model after treatment with NPIMA for 6 h. The left bar is the solvent (DMSO) negative control.
Overnight cultures of S. aureus and P. aeruginosa PA14 were diluted in wound-like media (45% Bolton broth, 50% bovine plasma, and 5% laked horse blood; Sun, Dowd, Smith, Rhoads, & Wolcott, 2008) to a turbidity of 0.5 at 600 nm in 1 ml. Each culture (1%) was used to inoculate fresh 5 ml of wound-like media. The combined culture (200 μl/well) was placed into 96-well plates and incubated at 37° C. with shaking for 24 hr. The non-gel liquid was removed, then the gel was washed once with PBS. NPIMA (0.1 and 0.5 mM) and DMSO were then added (200 μl/well) to the plates, which were incubated for another 6 hr with shaking. By triturating, the gel with cells was removed and added to 0.8 ml of PBS, and the cell viability was measured by spreading 100 μl of diluted culture on LB plates.

[5] = system: E. coli BW25113; assay: LIVE/DEAD staining; format: cell-based, Escherichia coli; settings: 100 μM, exponentially-growing cells
Description: as §2, §3

[6] = system: E. coli BW25113; assay: Transmission electron microscopy (TEM); format: cell-based, Escherichia coli; settings: 100 μM
Description: FIG. 6. NPIMA damages the Escherichia coli cell membrane. Transmission electron microscopic (TEM) images of E. coli BW25113 after NPIMA (100 μM) treatment for 40 min. Two representative images are shown. The arrow indicates membrane damage. NPIMA, 5-nitro-3-phenyl-1H-indol-2-ylmethylamine hydrochloride.
For transmission electron microscopy (TEM), E. coli BW25113 was grown to a turbidity of 0.8 at OD600, contacted with NPIMA at 100 μM for 0.75 hr in PBS, centrifuged at 8000 g, and resuspended in PBS. The samples were fixed with buffer (2.5% glutaraldehyde in 0.1M cacodylate buffer, pH 7.4) and negative stained with 2% uranyl acetate in the dark for 1 hr, then dehydrated. The sectioned specimens were stained again with uranyl acetate and lead citrate after dehydration and resin embedded. TEM images were obtained using a JEOL JEM 1200 EXII instrument.

Cl.NCc1[nH]c2ccc([N+](=O)[O-])cc2c1-c1ccccc1 [NPIMA, [(5-nitro-3-phenyl-1H-indol-2-yl)methyl]amine hydrochloride]
time to eradicate S. aureus cells [1]: 3 h
cell lysis seen by LIVE/DEAD staining (extracellular DNA) [2]: lysed
cells killed (LIVE/DEAD) [2]: 100%
toxicity (LDH and CCK-8) ([3]; 5 μM): not toxic
toxicity (LDH and CCK-8) ([3]; 10 μM): not toxic
concentrations showing toxicity in both tests [3]: ≥ 50 µM
reduction of total viable number of cells compared to DMSO [4]: 10 fold
cell lysis seen by LIVE/DEAD staining (extracellular DNA) [5]: lysed
cell envelope damage by TEM [6]: clear cell envelope damage
